Measurements published in US8012956B2, “Tropane compounds” (Exelixis, Inc., priority 2007, dated 2011).

What follows are compounds tested against HSP90 (Homo sapiens, UniProt P07900) (assay: HSP90 inhibition (HSP90 IC50)).
Assay type: biochemical

Structure (SMILES) | IC50 [nM]
CC(=O)c1ccc(N2[C@@H]3CC[C@H]2C[C@@H](NC(=O)c2ccc(C(N)=O)c(NC4CCCCC4)c2)C3)nc1 [N4-[8-(5-acetylpyridin-2-yl)-8-azabicyclo[3.2.1]oct-3-endo-yl]-2-(cyctohexylamino)benzene-1,4-dicarboxamide] | < 500
CCNc1cc(C(=O)N[C@H]2C[C@H]3CC[C@@H](C2)N3c2ccc(C(C)=O)cn2)ccc1C(N)=O [N4-[8-(5-acetylpyridin-2-yl)-8-azabicyclo[3.2.1]oct-3-endo-yl]-2-(ethylamino)benzene-1,4-dicarboxamide] | < 500
CC(=O)c1ccc(N2[C@@H]3CC[C@H]2C[C@@H](NC(=O)c2ccc(C(N)=O)c(Nc4ccccc4)c2)C3)nc1 [N4-[8-(5-acetylpyridin-2-yl)-8-azabicyclo[3.2.1]oct-3-endo-yl]-2-(phenylamino)benzene-1,4-dicarboxamide] | < 500
CC(=O)c1ccc(N2[C@@H]3CC[C@H]2C[C@@H](NC(=O)c2ccc(C(N)=O)c(NN4CCCCC4)c2)C3)nc1 [N4-[8-(5-acetylpyridin-2-yl)-8-azabicyclo[3.2.1]oct-3-endo-yl]-2-(piperidin-1-ylamino)benzene-1,4-dicarboxamide] | < 500
CC(=O)c1ccc(N2[C@@H]3CC[C@H]2C[C@@H](NC(=O)c2ccc(C(N)=O)c(NC4CCNCC4)c2)C3)nc1 [N4-[8-(5-acetylpyridin-2-yl)-8-azabicyclo[3.2.1]oct-3-endo-yl]-2-(piperidin-4-ylamino)benzene-1,4-dicarboxamide] | < 500
CCCNc1cc(C(=O)N[C@H]2C[C@H]3CC[C@@H](C2)N3c2ccc(C(C)=O)cn2)ccc1C(N)=O [N4-[8-(5-acetylpyridin-2-yl)-8-azabicyclo[3.2.1]oct-3-endo-yl]-2-(propylamino)benzene-1,4-dicarboxamide] | < 500
CC(=O)c1ccc(N2[C@@H]3CC[C@H]2C[C@@H](NC(=O)c2ccc(C(N)=O)c(NC4CCOCC4)c2)C3)nc1 [N4-[8-(5-acetylpyridin-2-yl)-8-azabicyclo[3.2.1]oct-3-endo-yl]-2-(tetrahydro-2H-pyran-4-ylamino)benzene-1,4-dicarboxamide] | < 500
CC(=O)c1ccc(N2[C@@H]3CC[C@H]2C[C@@H](NC(=O)c2ccc(C(N)=O)c(NC4CCOC4)c2)C3)nc1 (stereo partly drawn) [N4-[8-(5-acetylpyridin-2-yl)-8-azabicyclo[3.2.1]oct-3-endo-yl]-2-(tetrahydrofuran-3-ylamino)benzene-1,4-dicarboxamide] | < 500
CC(=O)c1ccc(N2[C@@H]3CC[C@H]2C[C@@H](NC(=O)c2ccc(C(N)=O)c(NCCOC(C)C)c2)C3)nc1 [N4-[8-(5-acetylpyridin-2-yl)-8-azabicyclo[3.2.1]oct-3-endo-yl]-2-({2-[(1-methylethyl)oxy]ethyl}amino)benzene-1,4-dicarboxamide] | < 500
CC(=O)c1ccc(N2[C@@H]3CC[C@H]2C[C@@H](NC(=O)c2ccc(C(N)=O)c(NCCCNC(C)C)c2)C3)nc1 [N4-[8-(5-acetylpyridin-2-yl)-8-azabicyclo[3.2.1]oct-3-endo-yl]-2-({3-[(1-methylethyl)amino]propyl}amino) benzene-1,4-dicarboxamide] | 500 to 999
COc1ccc(Nc2cc(C(=O)N[C@H]3C[C@H]4CC[C@@H](C3)N4c3ccc(C(C)=O)cn3)ccc2C(N)=O)cc1OCCN1CCOCC1 [N4-[8-(5-acetylpyridin-2-yl)-8-azabicyclo[3.2.1]oct-3-endo-yl]-2-({4-(methyloxy)-3-[(2-morpholin-4-ylethyl)oxy]phenyl}amino)benzene-1,4-dicarboxamide] | < 500
CC(=O)c1ccc(N2[C@@H]3CC[C@H]2C[C@@H](NC(=O)c2ccc(C(N)=O)c(NC(C)C(C)(C)C)c2)C3)nc1 (stereo partly drawn) [N4-[8-(5-acetylpyridin-2-yl)-8-azabicyclo[3.2.1]oct-3-endo-yl]-2-[(1,2,2-trimethylpropyl)amino]benzene-1,4-dicarboxamide] | < 500
CC(=O)c1ccc(N2[C@@H]3CC[C@H]2C[C@@H](NC(=O)c2ccc(C(N)=O)c(NC(C)C(C)C)c2)C3)nc1 (stereo partly drawn) [N4-[8-(5-acetylpyridin-2-yl)-8-azabicyclo[3.2.1]oct-3-endo-yl]-2-[(1,2-dimethylpropyl)amino]benzene-1,4-dicarboxamide] | < 500
CCN1CCC(Nc2cc(C(=O)N[C@H]3C[C@H]4CC[C@@H](C3)N4c3ccc(C(C)=O)cn3)ccc2C(N)=O)CC1 [N4-[8-(5-acetylpyridin-2-yl)-8-azabicyclo[3.2.1]oct-3-endo-yl]-2-[(1-ethylpiperidin-4-yl)amino]benzene-1,4-dicarboxamide] | 500 to 999
CCC(CC)Nc1cc(C(=O)N[C@H]2C[C@H]3CC[C@@H](C2)N3c2ccc(C(C)=O)cn2)ccc1C(N)=O [N4-[8-(5-acetylpyridin-2-yl)-8-azabicyclo[3.2.1]oct-3-endo-yl]-2-[(1-ethylpropyl)amino]benzene-1,4-dicarboxamide] | < 500
CC(=O)c1ccc(N2[C@@H]3CC[C@H]2C[C@@H](NC(=O)c2ccc(C(N)=O)c(NC(C)C)c2)C3)nc1 [N4-[8-(5-acetylpyridin-2-yl)-8-azabicyclo[3.2.1]oct-3-endo-yl]-2-[(1-methylethyl)amino]benzene-1,4-dicarboxamide] | < 500

Structure (SMILES) | IC50 [nM]
CCCC(CCC)Nc1cc(C(=O)N[C@H]2C[C@H]3CC[C@@H](C2)N3c2ccc(C(C)=O)cn2)ccc1C(N)=O [N4-[8-(5-acetylpyridin-2-yl)-8-azabicyclo[3.2.1]oct-3-endo-yl]-2-[(1-propylbutyl)amino]benzene-1,4-dicarboxamide] | < 500
CC(=O)c1ccc(N2[C@@H]3CC[C@H]2C[C@@H](NC(=O)c2ccc(C(N)=O)c(NCC(F)(F)F)c2)C3)nc1 [N4-[8-(5-acetylpyridin-2-yl)-8-azabicyclo[3.2.1]oct-3-endo-yl]-2-[(2,2,2-trifluoroethyl)amino]benzene-1,4-dicarboxamide] | < 500
CC(=O)c1ccc(N2[C@@H]3CC[C@H]2C[C@@H](NC(=O)c2ccc(C(N)=O)c(NCC(F)(F)C(F)(F)F)c2)C3)nc1 [N4-[8-(5-acetylpyridin-2-yl)-8-azabicyclo[3.2.1]oct-3-endo-yl]-2-[(2,2,3,3,3-pentafluoropropyl)amino]benzene-1,4-dicarboxamide] | < 500
CC(=O)c1ccc(N2[C@@H]3CC[C@H]2C[C@@H](NC(=O)c2ccc(C(N)=O)c(NCC(F)(F)C(F)(F)C(F)(F)F)c2)C3)nc1 [N4-[8-(5-acetylpyridin-2-yl)-8-azabicyclo[3.2.1]oct-3-endo-yl]-2-[(2,2,3,3,4,4,4-heptafluorobutyl)amino]benzene-1,4-dicarboxamide] | 500 to 999
CC(=O)c1ccc(N2C3CCC2CC(NC(=O)c2ccc(C(N)=O)c(NCCN)c2)C3)nc1 (stereo not drawn) [N4-[8-(5-acetylpyridin-2-yl)-8-azabicyclo[3.2.1]oct-3-endo-yl]-2-[(2-aminoethyl)amino]benzene-1,4-dicarboxamide] | < 500
CC(=O)c1ccc(N2[C@@H]3CC[C@H]2C[C@@H](NC(=O)c2ccc(C(N)=O)c(NCC(C)C)c2)C3)nc1 [N4-[8-(5-acetylpyridin-2-yl)-8-azabicyclo[3.2.1]oct-3-endo-yl]-2-[(2-methylpropyl)amino]benzefle-1,4-dicarboxamide] | < 500
CC(=O)c1ccc(N2[C@@H]3CC[C@H]2C[C@@H](NC(=O)c2ccc(C(N)=O)c(NCCC(F)(F)F)c2)C3)nc1 [N4-[8-(5-acetylpyridin-2-yl)-8-azabicyclo[3.2.1]oct-3-endo-yl]-2-[(3,3,3-trifluoropropyl)amino]benzene-1,4-dicarboxamide] | < 500
CC(=O)c1ccc(N2[C@@H]3CC[C@H]2C[C@@H](NC(=O)c2ccc(C(N)=O)c(Nc4cccc(OCCN(C)C)c4)c2)C3)nc1 [N4-[8-(5-acetylpyridin-2-yl)-8-azabicyclo[3.2.1]oct-3-endo-yl]-2-[(3-{[2-(dimethylamino)ethyl]oxy}phenyl)amino] benzene-1,4-dicarboxamide] | < 500
CC(=O)c1ccc(N2C3CCC2CC(NC(=O)c2ccc(C(N)=O)c(N[C@@H]4CCOC4)c2)C3)nc1 (stereo partly drawn) [N4-[8-(5-acetylpyridin-2-yl)-8-azabicyclo[3.2.1]oct-3-endo-yl]-2-[(3R)-tetrahydrofuran-3-ylamino]benzene-1,4-dioarboxamide] | < 500
CC(=O)c1ccc(N2C3CCC2CC(NC(=O)c2ccc(C(N)=O)c(N[C@H]4CCOC4)c2)C3)nc1 (stereo partly drawn) [N4-[8-(5-acetylpyridin-2-yl)-8-azabicyclo[3.2.1]oct-3-endo-yl]-2-[(3S)-tetrahydrofuran-3-ylamino]benzene-1,4-dicarboxamide] | < 500
CC(=O)c1ccc(N2[C@@H]3CC[C@H]2C[C@@H](NC(=O)c2ccc(C(N)=O)c(NCC4CC4)c2)C3)nc1 [N4-[8-(5-acetylpyridin-2-yl)-8-azabicyclo[3.2.1]oct-3-endo-yl]-2-[(cyclopropylmethyl)amino]benzene-1,4-dicarboxamide] | < 500
CC(=O)c1ccc(N2[C@@H]3CC[C@H]2C[C@@H](NC(=O)c2ccc(C(N)=O)c(NCc4ccccc4)c2)C3)nc1 [N4-[8-(5-acetylpyridin-2-yl)-8-azabicyclo[3.2.1]oct-3-endo-yl]-2-[(phenylmethyl)amino]benzene-1,4-dicarboxamide] | 500 to 999
CC(=O)c1ccc(N2[C@@H]3CC[C@H]2C[C@@H](NC(=O)c2ccc(C(N)=O)c(NCC4CCNC4)c2)C3)nc1 (stereo partly drawn) [N4-[8-(5-acetylpyridin-2-yl)-8-azabicyclo[3.2.1]oct-3-endo-yl]-2-[(pyrrolidin-3-ylmethyl)amino]benzene-1,4-dicarboxamide] | < 500
CC(=O)c1ccc(N2[C@@H]3CC[C@H]2C[C@@H](NC(=O)c2ccc(C(N)=O)c(NCC4CCCO4)c2)C3)nc1 (stereo partly drawn) [N4-[8-(5-acetylpyridin-2-yl)-8-azabicyclo[3.2.1]oct-3-endo-yl]-2-[(tetrahydrofuran-2-ylmethyl)amino]benzene-1,4-dicarboxamide] | < 500
CC(=O)c1ccc(N2C3CCC2CC(NC(=O)c2ccc(C(N)=O)c(N[C@H]4CC[C@H](O)CC4)c2)C3)nc1 (stereo partly drawn) [N4-[8-(5-acetylpyridin-2-yl)-8-azabicyclo[3.2.1]oct-3-endo-yl]-2-[(trans-4-hydroxycyclohexyl)amino]benzene-1,4-dicarboxamide] | < 500
CC(=O)c1ccc(N2[C@@H]3CC[C@H]2C[C@@H](NC(=O)c2ccc(C(N)=O)c(N)c2)C3)nc1 [N4-[8-(5-acetylpyridin-2-yl)-8-azabicyclo[3.2.1]oct-3-endo-yl]-2-aminobenzene-1,4-dicarboxamide] | 500 to 999
